Our source for the EC50 and IC50 values is doi:10.1101/620765v2 (biorxiv, 2019).

SMILES strings stand for the structures. Where two headings read alike, the source gives them in different places. Where only a bound is given, the exact number is not on record here.

The target in assay [1] is T1, human αVβ3 expressed in HEK-293 cells (HEK-αVβ3) (Homo sapiens, UniProt P05106+P06756). Nature of the assay: exposure of mAb AP5. The class given is cell-based.
For assay [2], the target named is T1, human αVβ3 expressed in HEK-293 cells (HEK-αVβ3). As to the kind of experiment: inhibition of HEK-αVβ[…] cell adhesion to immobilized fibrinogen. Format: cell-based.
The target is the same in assay [3]. Nature of the assay: inhibition of HEK-αVβ[…] cell adhesion to fibronectin. The class given is cell-based.
The target of assay [4] is T2, purified αVβ5 (R&D Systems) (Homo sapiens, UniProt P06756+P18084). Nature of the assay: inhibition of binding of purified αVβ[…] to immobilized vitronectin, plate assay.
Assay [5] has as its target T1, human αVβ3 expressed in HEK-293 cells (HEK-αVβ3). As to the kind of experiment: cell-based. Set-up: species or system HEK-293 expressing human αVβ3.
Assay [6] concerns the target purified human αVβ3 (R&D Systems) (Homo sapiens, UniProt P05106+P06756). Nature of the assay: biochemical.
The target of assay [7] is T2, purified αVβ5 (R&D Systems). The note with it: read-out: IC50 (μM) purified αVβ5 binding to vitronectin; antagonist.

As a reminder, the EC50 is the midpoint of the concentration-response curve. A higher EC50 goes with a less potent agent. As usually defined, the IC50 is the concentration at which inhibition is half-maximal. `O=C(O)CCNC(=O)CCCCc1ccc2c(n1)NCCC2` [C, TDI-1367]: in assay [1], the EC50 is more than 10000 nM. In assay [2], this compound came in with an IC50 of 756 ± 607 nM.

Regarding `O=C(CCCCc1ccc2c(n1)NCCC2)NCC[C@@H](Nc1nc2ccccc2o1)C(=O)O` [TDI-4158], the EC50 in assay [1] was more than 10000 nM. Besides, the half-inhibitory concentration (IC50) in assay [2] came out at 123 ± 55 nM.

On to `O=C(CCCCc1ccc2c(n1)NCCC2)NCCC(Nc1nc2ccccc2o1)C(=O)O` (racemic) [E, TDI-3761], for which the IC50 in assay [3] was found to be 79 ± 10 nM; in assay [4], 875 ± 348 nM; in assay [5], 172 ± 66 nM; in assay [6], 0.049 ± 0.05 µM.

For the compound `COc1ccc(C(CC(=O)O)N2CCN(CCCc3ccc4c(n3)NCCC4)C2=O)cn1` (racemic) [A, TDI-806], the EC50 in assay [1] amounted to 12 nM. Besides, the IC50 in assay [2] stood at 3 nM.

For `O=C(CCCCc1ccc2c(n1)NCCC2)NCC[C@H](NC(=O)c1nc2ccccc2s1)C(=O)O` [G, TDI-4161], the half-inhibitory concentration (IC50) in assay [3] was found to be 42 ± 21 nM; in assay [4], 689 ± 374 nM; in assay [6], 0.012 ± 0.005 µM.

Consider `COc1ccc(C(CC(=O)O)N2CCN(CCCc3ccc4c(n3)NCCC4)C2=O)cn1` (racemic) [MK-429 racemate], for which the IC50 in assay [6] (read-out: IC50 (μM) purified αVβ3 binding to penton base, antagonist) turned out to be 0.011 ± 0.005 µM; in assay [7] it was 0.035 ± 0.019 µM.

Turning to `O=C(CCCCc1ccc2c(n1)NCCC2)NCC[C@H](Nc1nc2ccccc2o1)C(=O)O` [TDI-4160], the EC50 in assay [1] was more than 10000 nM. The IC50 in assay [2] (1 mM Mg2+, 2 mM Ca2+, pH 7.4, room temperature) came to 185 ± 42 nM.

`O=C(O)CCCNC(=O)CCCCc1ccc2c(n1)NCCC2` [D, TDI-2668] had an EC50 in assay [1] of more than 10000 nM. Besides, in assay [2], half-maximal inhibition (IC50) was put at 1020 nM.

In assay [2], `O=C(CCCCc1ccc2c(n1)NCCC2)NCCC(NC(=O)c1nc2ccccc2s1)C(=O)O` (racemic) [F, TDI-3909] yielded an IC50 of 49 ± 16 nM.
